# Key:
# [1] = test system: FGF2/FGFR3-mediated extracellular matrix loss in RCS chondrocytes; experiment: [35S]sulfate labeling assay in RCS chondrocytes; assay type: cell-based, rat; settings: FGF2 5 ng/ml, NF449 20 μM, 72 hours, FIG. 2b
# Method: (§1) For Alcian blue staining, growing RCS cultures were treated with FGF2 (5 ng/ml) alone or in the presence of NF449 (20 μM) for 72 hours, fixed with 4% paraformaldehyde and stained for 30 minutes with Alcian blue. For quantification of the FGF2/FGFR3-mediated extracellular matrix loss, RCS chondrocytes were treated with FGF2 (5 ng/ml) and NF449 (20 μM) for 72 hours in the presence of 10 μCi/ml of [^35S]sulfate (Perkin Elmer, Boston, Mass.). Following the cultivation period, cells were harvested and the incorporated radioactivity was determined by liquid scintillation.
# (§2) Apart from the growth arrest, aberrant FGFR3 signaling in chondrocytes leads to the loss of their extracellular matrix, rich in sulfated proteoglycans, due to inhibition of matrix synthesis as well as degradation of the existing matrix. The inventors therefore evaluated whether NF449 rescues the extracellular matrix loss induced by FGFR3 activation. […] Similar to previous findings, this matrix was lost after the 72-hours of FGF2 treatment. […] To further confirm this observation, cells were incubated with [^35S]sulfate for 72 hours to label the extracellular matrix and determined the effect of FGF2 and NF449 on the cell-bound radioactivity.
# [2] = test system: FGF2-mediated extracellular matrix loss in RCS chondrocytes; experiment: Alcian blue staining of extracellular matrix in RCS chondrocytes; assay type: cell-based, rat; settings: FGF2 5 ng/ml, NF449 20 μM, 72 hours, FIG. 2a
# Method: as §1, §2
# [3] = test system: CCL3 and CCL4 expression in OPM2 cells; experiment: Real-time RT-PCR of FGF2/FGFR3-induced CCL3 and CCL4 expression; assay type: cell-based; settings: NF449 one hour before FGF2, FIG. 3b
# Method: FIG. 3, in accordance with an embodiment herein, depicts 4,4′,4″,4′″-[carbonyl-bis[imino-5,1,3-benzenetriyl bis-{carbonylimino}]]tetrakis-{benzene-1,3-disulfonic acid} inhibits FGF2/FGFR3 signaling in MM cell lines OPM2 and KMS11. (a) KMS11 and OPM2 cells were serum-starved for 12 hours, treated with 4,4′,4″,4′″-[carbonyl-bis[imino-5,1,3-benzenetriyl bis-{carbonylimino}]]tetrakis-{benzene-1,3-disulfonic acid} for one hour before the treatment with FGF2 and the levels of ERK MAP kinase phosphorylation were determined by western blotting with the P-ERK1/2(Thr^202/Tyr^204) antibody. As a loading control, the membranes were reprobed with antibody recognizing ERK regardless of its phosphorylation. Note the FGF2-mediated ERK phosphorylation is inhibited by 4,4′,4″,4′″-[carbonyl-bis[imino-5,1,3-benzenetriyl bis-{carbonylimino}]]tetrakis-{benzene-1,3-disulfonic acid} in both KMS11 and OPM2 cells. (b) The OPM2 cells were serum starved for 12 hours, pre-treated with 4,4′,4″,4′″-[carbonyl-bis[imino-5,1,3-benzenetriyl bis-{carbonylimino}]]tetrakis-{benzene-1,3-disulfonic acid} for one hour before FGF2 treatment, and analyzed for CCL3 and CCL4 expression by real-time RT-PCR as described herein. The results are expressed as the fold difference relative to control (2^ddCt). Note the FGF2-mediated induction of CCL3 and CCL4 that is inhibited by 4,4′,4″,4′″-[carbonyl-bis[imino-5,1,3-benzenetriyl bis-{carbonylimino}]]tetrakis-{benzene-1,3-disulfonic acid}. The data represent two independent samples, each run as a technical duplicate, with the indicated range. The results are representative for three experiments.
# Total RNA was isolated using the RNeasy Mini Kit (Qiagene, Valencia, Calif.) and poly-dT-primed cDNA was synthesized from 3 μg of RNA using Omniscript RT kit (Qiagene). Real-time RT-PCRs were carried out as described in detail elsewhere, using Dynamo SYBR Green qPCR chemistry (Finnzymes, Espoo, Finland). The PCR primers were the following (5′ to 3′; product size): CCL3 (SEQ. ID. NO.: 1 and SEQ. ID. NO.: 2), 192 bp; CCL4 (SEQ. ID, NO.: 3 and SEQ. ID. NO.: 4), 214 bp; ACTIN (SEQ. ID. NO.: 5 and SEQ. ID. NO.: 6), 245 bp. The results are expressed as fold difference relative to control (2^ddCt).
# Since MM represents another area of pathological FGFR3 signaling in viva, the inventors evaluated whether NF449 inhibits FGFR3 signaling in KMS11 and OPM2 MM cell lines. OPM2 and KMS11 cells overexpress FGFR3 carrying the strongly activating mutations Y373C or K650E and thus serve as an in vitro model for oncogenic FGFR3 signaling in MM [14]. […] As the CCL3 ([…]) and CCL4 (MIP-1β) chemokines were previously identified as transcriptional targets of FGFR3 signaling in MM [16], the inventors determined the effect of NF449 on the FGF2/FGFR3-induced expression of CCL3 and CCL4.
# [4] = listed as 4,4′,4″,4′″-[carbonyl-bis[imino-5,1,3-benzenetriyl bis-{carbonylimino}]]tetrakis
structure (smiles),measurement,setting,value
"O=C(Nc1cc(C(=O)Nc2ccc(S(=O)(=O)O)cc2S(=O)(=O)O)cc(C(=O)Nc2ccc(S(=O)(=O)O)cc2S(=O)(=O)O)c1)Nc1cc(C(=O)Nc2ccc(S(=O)(=O)O)cc2S(=O)(=O)O)cc(C(=O)Nc2ccc(S(=O)(=O)O)cc2S(=O)(=O)O)c1 [NF449, 4,4′,4″,4′″-[carbonyl-bis[imino-5,1,3-benzenetriylbis-{carbonylimino}]]tetrakis-{benzene-1,3-disulfonic acid}]",FGF2-mediated inhibition of [35S]sulfate incorporation (loss of sulfated proteoglycans),[1],completely rescued
same,FGF2-mediated inhibition of [35S]sulfate incorporation (loss of sulfated proteoglycans),[1]; [4],reversed
same,FGF2-induced cellular shape change,[2],rescued
same,"FGF2-mediated extracellular matrix loss, Alcian blue staining",[2],equaled that of the control cells
same,"FGF2-mediated extracellular matrix loss, Alcian blue staining",[2]; [4],reversed
same,FGF2-mediated upregulation of CCL3 transcripts,[3],significantly blocked
same,FGF2-mediated upregulation of CCL4 transcripts,[3],significantly blocked
same,FGF2-mediated upregulation of CCL3 transcripts,[3]; [4],inhibited
same,FGF2-mediated upregulation of CCL4 transcripts,[3]; [4],inhibited

# Reference: patent publication US20110166223A1, “METHODS OF INHIBITING FGFR3 SIGNALING” (CEDARS-SINAI MEDICAL CENTER, priority 2008, published 2011)
